In PubChem BioAssay AID330 (DTP/NCI, 2004):
Values joined by “and” are separate entries in the source; they are usually repeats but may differ in a detail not shown here. Equal entries are not always repeated. Inconclusive results and toxic doses are left out.

System: P388 leukemia ip, CD2F1 mice, survival T/C
Test: NCI In Vivo Anticancer Drug Screen. Data for tumor model P388 Leukemia (intraperitoneal) in CD2F1 (CDF1) mice
Conditions: endpoint: median survival time, higher = longer survival
Outline: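 Mice carrying the transplanted tumor received test compound or vehicle. Survival was recorded in each group, and the value is the treated-group measurement divided by that of the vehicle-treated control group.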

[1] = dose: 50.0 mg/kg/injection, schedule: Q04DX003 (ip), vehicle: saline with Tween-80
[2] = dose: 50.0 mg/kg/injection, schedule: Q01DX009 (ip), vehicle: saline with Tween-80
[3] = dose: 100.0 mg/kg/injection, schedule: Q04DX003 (ip), vehicle: saline with Tween-80
[4] = dose: 100.0 mg/kg/injection, schedule: Q01DX009 (ip), vehicle: saline with Tween-80
[5] = dose: 60.0 mg/kg/injection, schedule: Q01DX005 (ip), vehicle: saline with Tween-80
[6] = dose: 120.0 mg/kg/injection, schedule: Q01DX005 (ip), vehicle: saline with Tween-80
[7] = dose: 240.0 mg/kg/injection, schedule: Q01DX005 (ip), vehicle: saline with Tween-80
[8] = dose: 6.25 mg/kg/injection, schedule: Q01DX005 (ip), vehicle: Klucel (hydroxypropylcellulose) (HPC)
[9] = dose: 12.5 mg/kg/injection, schedule: Q01DX005 (ip), vehicle: Klucel (hydroxypropylcellulose) (HPC)
[10] = dose: 25.0 mg/kg/injection, schedule: Q01DX005 (ip), vehicle: Klucel (hydroxypropylcellulose) (HPC)
[11] = dose: 50.0 mg/kg/injection, schedule: Q01DX005 (ip), vehicle: Klucel (hydroxypropylcellulose) (HPC)
[12] = dose: 12.5 mg/kg/injection, schedule: Q04DX003 (ip), vehicle: saline with Tween-80
[13] = dose: 25.0 mg/kg/injection, schedule: Q04DX003 (ip), vehicle: saline with Tween-80

O=C(CCN1CC1)OCCOC(=O)CCN1CC1
T/C (dose: 25.0 mg/kg/injection, schedule: Q04DX003 (ip), vehicle: saline): 159 % of control | T/C [1]: 150 % of control | T/C (dose: 50.0 mg/kg/injection, schedule: Q04DX003 (ip), vehicle: saline): 181 % of control | T/C (dose: 75.0 mg/kg/injection, schedule: Q04DX003 (ip), vehicle: saline with Tween-80): 166 % of control

NS(=O)(=O)c1cc([N+](=O)[O-])c(SSc2sc(S(N)(=O)=O)cc2[N+](=O)[O-])s1
T/C (dose: 25.0 mg/kg/injection, schedule: Q04DX003 (ip), vehicle: Klucel (hydroxypropylcellulose) (HPC)): 104 % of control | T/C (dose: 50.0 mg/kg/injection, schedule: Q04DX003 (ip), vehicle: Klucel (hydroxypropylcellulose) (HPC)): 101 % of control | T/C (dose: 100.0 mg/kg/injection, schedule: Q01DX001 (ip), vehicle: Klucel (hydroxypropylcellulose) (HPC)): 106 % of control | T/C (dose: 100.0 mg/kg/injection, schedule: Q04DX003 (ip), vehicle: Klucel (hydroxypropylcellulose) (HPC)): 107 % of control | T/C (dose: 200.0 mg/kg/injection, schedule: Q01DX001 (ip), vehicle: Klucel (hydroxypropylcellulose) (HPC)): 99 % of control

C1=C[N-]c2c3c(ccc2=C1)=CC=C[N-]3.C1=C[N-]c2c3c(ccc2=C1)=CC=C[N-]3.C1=C[N-]c2c3c(ccc2=C1)=CC=C[N-]3.[Co+3].[O-][Cl+3]([O-])([O-])O
T/C (dose: 7.5 mg/kg/injection, schedule: Q01DX005 (ip), vehicle: saline with Tween-80): 98 % of control | T/C (dose: 15.0 mg/kg/injection, schedule: Q01DX005 (ip), vehicle: saline with Tween-80): 98 % of control | T/C (dose: 30.0 mg/kg/injection, schedule: Q01DX005 (ip), vehicle: saline with Tween-80): 104 % of control

O=C1C=C(O/C=C/C(C(F)(F)F)C(F)(F)F)C(=O)c2ccccc21
T/C [2]: 115 % of control | T/C [1]: 91 % of control | T/C [3]: 95 % of control

COc1cc2c(c3oc4c(O)cccc4c(=O)c13)CC(C(C)(O)CCl)O2 (centres undefined)
T/C (dose: 2.0 mg/kg/injection, schedule: Q01DX009 (ip), vehicle: saline + alcohol): 113 % of control | T/C (dose: 4.0 mg/kg/injection, schedule: Q01DX009 (ip), vehicle: saline + alcohol): 112 % of control

C[N+](C)(C)CCCCC[N+](C)(C)C
T/C (dose: 6.25 mg/kg/injection, schedule: Q01DX009 (ip), vehicle: saline): 110 % of control | T/C (dose: 12.5 mg/kg/injection, schedule: Q01DX009 (ip), vehicle: saline): 110 % of control | T/C (dose: 25.0 mg/kg/injection, schedule: Q01DX009 (ip), vehicle: saline with Tween-80): 100 % of control | T/C (dose: 25.0 mg/kg/injection, schedule: Q01DX009 (ip), vehicle: saline): 110 % of control | T/C [2]: 104 % of control | T/C [4]: 100 % of control

c1ccc2c(c1)OC1OC2Oc2ccccc21
T/C [5]: 100 % of control | T/C [6]: 100 % of control | T/C [7]: 101 % of control

[CH3][Sn]([CH3])([CH3])[O]C(=O)CNC(=O)c1ccccc1
T/C (dose: 1.56 mg/kg/injection, schedule: Q01DX001 (ip), vehicle: Klucel (hydroxypropylcellulose) (HPC)): 103 % of control | T/C (dose: 3.12 mg/kg/injection, schedule: Q01DX001 (ip), vehicle: Klucel (hydroxypropylcellulose) (HPC)): 103 % of control

CC(=O)SCC[n+]1cc2ccccc2c2ccccc21
T/C (dose: 3.12 mg/kg/injection, schedule: Q01DX005 (ip), vehicle: Klucel (hydroxypropylcellulose) (HPC)): 95 % of control | T/C [8]: 99 % of control | T/C [9]: 105 % of control and 108 % of control | T/C [10]: 100 % of control | T/C [11]: 115 % of control and 118 % of control

CC(=O)OC(OC(C)=O)C(CSC#N)SC#N (centres undefined)
T/C [8]: 99 % of control | T/C [9]: 99 % of control | T/C [10]: 99 % of control | T/C [11]: 102 % of control | T/C (dose: 100.0 mg/kg/injection, schedule: Q01DX005 (ip), vehicle: Klucel (hydroxypropylcellulose) (HPC)): 96 % of control | T/C (dose: 200.0 mg/kg/injection, schedule: Q01DX005 (ip), vehicle: Klucel (hydroxypropylcellulose) (HPC)): 113 % of control

C[N+](C)(Cn1ncc2ccc([N+](=O)[O-])cc21)Cn1ncc2ccc([N+](=O)[O-])cc21
T/C [12]: 100 % of control | T/C [13]: 97 % of control | T/C [1]: 92 % of control | T/C [3]: 96 % of control

CC(=O)c1c(C)n(-c2ccccc2)c2c1[nH]c1ccccc12
T/C (dose: 3.75 mg/kg/injection, schedule: Q01DX005 (ip), vehicle: Klucel (hydroxypropylcellulose) (HPC)): 94 % of control | T/C (dose: 7.5 mg/kg/injection, schedule: Q01DX005 (ip), vehicle: Klucel (hydroxypropylcellulose) (HPC)): 92 % of control | T/C (dose: 15.0 mg/kg/injection, schedule: Q01DX005 (ip), vehicle: Klucel (hydroxypropylcellulose) (HPC)): 86 % of control and 93 % of control | T/C (dose: 60.0 mg/kg/injection, schedule: Q01DX005 (ip), vehicle: Klucel (hydroxypropylcellulose) (HPC)): 93 % of control | T/C (dose: 240.0 mg/kg/injection, schedule: Q01DX005 (ip), vehicle: Klucel (hydroxypropylcellulose) (HPC)): 92 % of control

O=C1C2=C(OCCO2)C(=O)C2=C1OCO2
T/C [5]: 109 % of control | T/C [6]: 107 % of control | T/C [7]: 88 % of control

COC1=CC(=O)C(OC)=C(C2C(=O)N(C)c3ccccc32)C1=O (centres undefined)
T/C (dose: 7.5 mg/kg/injection, schedule: Q01DX005 (ip), vehicle: saline): 111 % of control | T/C (dose: 15.0 mg/kg/injection, schedule: Q01DX005 (ip), vehicle: saline): 121 % of control | T/C [5]: 117 % of control

N#CCCn1nc(SC2CCCCC2)c(=O)[nH]c1=O
T/C (dose: 25.0 mg/kg/injection, schedule: Q01DX005 (ip), vehicle: water): 108 % of control | T/C (dose: 50.0 mg/kg/injection, schedule: Q01DX005 (ip), vehicle: water): 103 % of control | T/C (dose: 100.0 mg/kg/injection, schedule: Q01DX005 (ip), vehicle: water): 98 % of control | T/C (dose: 200.0 mg/kg/injection, schedule: Q01DX005 (ip), vehicle: water): 108 % of control

O/N=C(Sc1ccccn1)/C(=N/O)Sc1ccccn1
T/C (dose: 50.0 mg/kg/injection, schedule: Q01DX005 (ip), vehicle: saline with Tween-80): 101 % of control | T/C (dose: 100.0 mg/kg/injection, schedule: Q01DX005 (ip), vehicle: saline with Tween-80): 109 % of control | T/C (dose: 200.0 mg/kg/injection, schedule: Q01DX005 (ip), vehicle: saline with Tween-80): 113 % of control

Cn1c2nc(-[n+]3cccc(CO)c3)nc-2c([O-])n(C)c1=O
T/C (dose: 100.0 mg/kg/injection, schedule: Q04DX003 (ip), vehicle: saline): 103 % of control | T/C (dose: 200.0 mg/kg/injection, schedule: Q04DX003 (ip), vehicle: saline): 99 % of control | T/C (dose: 400.0 mg/kg/injection, schedule: Q04DX003 (ip), vehicle: saline): 103 % of control

Nc1nc(SCc2ccccc2)sc1C(=O)N1CCCCC1
T/C (dose: 50.0 mg/kg/injection, schedule: Q01DX009 (ip), vehicle: Klucel (hydroxypropylcellulose) (HPC)): 100 % of control | T/C (dose: 100.0 mg/kg/injection, schedule: Q01DX009 (ip), vehicle: Klucel (hydroxypropylcellulose) (HPC)): 100 % of control | T/C (dose: 200.0 mg/kg/injection, schedule: Q01DX009 (ip), vehicle: Klucel (hydroxypropylcellulose) (HPC)): 101 % of control

COc1cccc2c1C(=O)c1c(O)c3c(c(O)c1C2=N)C[C@@](O)(C(C)=O)CC3OC1CC(N(Cc2ccccc2)Cc2ccccc2)C(O)C(C)O1 (some centres undefined)
T/C [12]: 102 % of control | T/C [13]: 98 % of control | T/C [1]: 102 % of control and 123 % of control | T/C [3]: 111 % of control and 122 % of control | T/C (dose: 200.0 mg/kg/injection, schedule: Q04DX003 (ip), vehicle: saline with Tween-80): 124 % of control | T/C (dose: 400.0 mg/kg/injection, schedule: Q04DX003 (ip), vehicle: saline with Tween-80): 106 % of control

CSC(Cl)=NC(=O)C(=O)N=C(Cl)SC
T/C [2]: 96 % of control | T/C [4]: 89 % of control

NCCOCCN
T/C (dose: 60.0 mg/kg/injection, schedule: Q01DX005 (ip), vehicle: saline): 100 % of control | T/C (dose: 120.0 mg/kg/injection, schedule: Q01DX005 (ip), vehicle: saline): 101 % of control | T/C (dose: 240.0 mg/kg/injection, schedule: Q01DX005 (ip), vehicle: saline): 95 % of control

OC1COC(c2nn(-c3ccccc3)c3nc4ccc(Cl)cc4nc23)C1O (centres undefined)
T/C (dose: 100.0 mg/kg/injection, schedule: Q04DX002 (ip), vehicle: saline with Tween-80): 107 % of control | T/C (dose: 200.0 mg/kg/injection, schedule: Q04DX002 (ip), vehicle: saline with Tween-80): 97 % of control | T/C (dose: 400.0 mg/kg/injection, schedule: Q04DX002 (ip), vehicle: saline with Tween-80): 95 % of control

COC(=O)C1=C(C)NC(C)=C(C(=O)OC)C1c1ccc(NC(C)=O)cc1
T/C [5]: 113 % of control | T/C [6]: 111 % of control | T/C [7]: 113 % of control
